Measured values taken from ChEMBL document CHEMBL4808234, “Substituent effects of cyclic naphthalene diimide on G-quadruplex binding and the inhibition of cancer cell growth” (Bioorg Med Chem Lett, 2021).
Calls of active or inactive are those of the source. The rule behind the calls is not given here.

Tests used:
Quadruplex DNA [1] = assay: Binding affinity to c-myc G4 DNA 5'-TGAGGGTGGGGAGGGTGGGGAA-3' (unknown origin) assessed as association constant at equilibrium measured under dilution conditions by isothermal titration calorimetry; assay type: nucleic-acid assay; conditions: Homo sapiens
[2] = molecular target: Telomerase reverse transcriptase (Homo sapiens) (UniProt O14746); assay: Inhibition of telomerase in human A549 cell lysate using TA-core (5'-TAGGGTTAGGGTTAGGGTTAGGG-3') and Rev21G (5'-TCT CGT CTF CCC TAA-3') as primer by PCR stop assay; assay type: subcellular
Telomerase reverse transcriptase (Homo sapiens), sequence (O14746 whole entry): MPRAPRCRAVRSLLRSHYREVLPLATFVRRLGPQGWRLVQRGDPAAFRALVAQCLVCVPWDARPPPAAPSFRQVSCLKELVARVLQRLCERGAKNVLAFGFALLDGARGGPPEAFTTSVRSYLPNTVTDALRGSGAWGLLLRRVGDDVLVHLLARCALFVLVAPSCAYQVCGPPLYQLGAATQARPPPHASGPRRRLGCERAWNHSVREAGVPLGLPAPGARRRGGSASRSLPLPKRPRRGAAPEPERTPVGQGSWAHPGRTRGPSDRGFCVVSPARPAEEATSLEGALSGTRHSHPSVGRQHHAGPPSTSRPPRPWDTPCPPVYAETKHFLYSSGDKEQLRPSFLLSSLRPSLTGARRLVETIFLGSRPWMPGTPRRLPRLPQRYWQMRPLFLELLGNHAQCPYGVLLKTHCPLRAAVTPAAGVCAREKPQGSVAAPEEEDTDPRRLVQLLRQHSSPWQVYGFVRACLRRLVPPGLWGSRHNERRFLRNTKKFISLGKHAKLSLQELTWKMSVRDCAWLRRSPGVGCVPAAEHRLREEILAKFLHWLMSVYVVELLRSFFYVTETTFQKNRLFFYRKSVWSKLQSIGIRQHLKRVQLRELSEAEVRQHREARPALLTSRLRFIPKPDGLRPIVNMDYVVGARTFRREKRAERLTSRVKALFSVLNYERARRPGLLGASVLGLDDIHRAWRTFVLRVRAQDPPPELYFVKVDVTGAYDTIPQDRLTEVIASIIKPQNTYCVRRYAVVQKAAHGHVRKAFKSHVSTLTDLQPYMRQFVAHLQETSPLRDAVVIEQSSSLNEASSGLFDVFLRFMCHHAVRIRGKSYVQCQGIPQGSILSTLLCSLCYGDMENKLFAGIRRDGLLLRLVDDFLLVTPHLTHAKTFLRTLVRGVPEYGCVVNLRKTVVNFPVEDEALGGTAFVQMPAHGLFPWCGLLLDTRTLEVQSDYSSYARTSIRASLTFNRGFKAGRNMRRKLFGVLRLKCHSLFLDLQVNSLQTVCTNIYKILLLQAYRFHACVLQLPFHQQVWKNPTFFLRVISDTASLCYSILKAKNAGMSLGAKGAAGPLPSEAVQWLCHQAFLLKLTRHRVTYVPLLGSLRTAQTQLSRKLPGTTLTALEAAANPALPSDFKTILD

Quadruplex DNA [3] = assay: Binding affinity at TA-core G4 DNA 5'-TAGGGTTAGGGTTAGGGTTAGGG-3' (unknown origin) assessed as change in melting temperature by circular dichroism spectrophotometric method; assay type: nucleic-acid assay; conditions: Homo sapiens
Quadruplex DNA [4] = assay: Binding affinity to c-myc G4 DNA 5'-TGAGGGTGGGGAGGGTGGGGAA-3' (unknown origin) assessed as change in enthalpy measured under dilution conditions by isothermal titration calorimetry; assay type: nucleic-acid assay; conditions: Homo sapiens
Quadruplex DNA [5] = assay: Binding affinity to TA-core G4 DNA 5'-TAGGGTTAGGGTTAGGGTTAGGG-3' (unknown origin) assessed as change in enthalpy measured under dilution conditions by isothermal titration calorimetry; assay type: nucleic-acid assay; conditions: Homo sapiens
Quadruplex DNA [6] = assay: Binding affinity to TA-core G4 DNA 5'-TAGGGTTAGGGTTAGGGTTAGGG-3' (unknown origin) assessed as change in entropy measured under dilution conditions by isothermal titration calorimetry; assay type: nucleic-acid assay; conditions: Homo sapiens
Quadruplex DNA [7] = assay: Binding affinity to c-myc G4 DNA 5'-TGAGGGTGGGGAGGGTGGGGAA-3' (unknown origin) assessed as Gibbs free energy change measured under molecular crowding conditions by isothermal titration calorimetry; assay type: nucleic-acid assay; conditions: Homo sapiens
Quadruplex DNA [8] = assay: Binding affinity to TA-core G4 DNA 5'-TAGGGTTAGGGTTAGGGTTAGGG-3' (unknown origin) assessed as association constant at equilibrium measured under molecular crowding conditions by isothermal titration calorimetry; assay type: nucleic-acid assay; conditions: Homo sapiens
[9] = Growth inhibition of human NHEK cells at 0.1 uM incubated for 24 hrs by CCK8 assay; assay type: tissue-based; conditions: read-out: GI
Quadruplex DNA [10] = assay: Binding affinity to c-myc G4 DNA 5'-TGAGGGTGGGGAGGGTGGGGAA-3' (unknown origin) assessed as association constant at equilibrium measured under molecular crowding conditions by isothermal titration calorimetry; assay type: nucleic-acid assay; conditions: Homo sapiens
Quadruplex DNA [11] = assay: Binding affinity at c-myc G4 DNA 5'-TGAGGGTGGGGAGGGTGGGGAA-3' (unknown origin) assessed as circular dichroism changes up to 4.5 uM by spectrophotometric method; assay type: nucleic-acid assay; conditions: Homo sapiens; dose microM <=4.5
Quadruplex DNA [12] = assay: Binding affinity to c-myc G4 DNA 5'-TGAGGGTGGGGAGGGTGGGGAA-3' (unknown origin) assessed as Gibbs free energy change measured under dilution conditions by isothermal titration calorimetry; assay type: nucleic-acid assay; conditions: Homo sapiens
Ca9-22 [13] = assay: Growth inhibition of human Ca9-22 cells incubated for 24 hrs by CCK8 assay; assay type: functional, cell-based
Bone marrow cell [14] = assay: Growth inhibition of human Bone marrow at 0.1 uM cell incubated for 24 hrs by CCK8 assay; assay type: cell-based
Bone marrow cell [15] = assay: Growth inhibition of human Bone marrow cell incubated for 24 hrs by CCK8 assay; assay type: cell-based
Quadruplex DNA [16] = assay: Binding affinity to c-myc G4 DNA 5'-TGAGGGTGGGGAGGGTGGGGAA-3' (unknown origin) assessed as change in enthalpy measured under molecular crowding conditions by isothermal titration calorimetry; assay type: nucleic-acid assay; conditions: Homo sapiens
Ca9-22 [17] = assay: Growth inhibition of human Ca9-22 cells at 0.1 uM incubated for 24 hrs by CCK8 assay; assay type: functional; conditions: read-out: GI
[18] = Growth inhibition of human NHEK cells incubated for 24 hrs by CCK8 assay; assay type: tissue-based
Quadruplex DNA [19] = assay: Binding affinity to c-myc G4 DNA 5'-TGAGGGTGGGGAGGGTGGGGAA-3' (unknown origin) assessed as change in entropy measured under molecular crowding conditions by isothermal titration calorimetry; assay type: nucleic-acid assay; conditions: Homo sapiens
Quadruplex DNA [20] = assay: Binding affinity to TA-core G4 DNA 5'-TAGGGTTAGGGTTAGGGTTAGGG-3' (unknown origin) assessed as change in entropy measured under molecular crowding conditions by isothermal titration calorimetry; assay type: nucleic-acid assay; conditions: Homo sapiens
Quadruplex DNA [21] = assay: Binding affinity to TA-core G4 DNA 5'-TAGGGTTAGGGTTAGGGTTAGGG-3' (unknown origin) assessed as Gibbs free energy change measured under dilution conditions by isothermal titration calorimetry; assay type: nucleic-acid assay; conditions: Homo sapiens
Quadruplex DNA [22] = assay: Binding affinity to TA-core G4 DNA 5'-TAGGGTTAGGGTTAGGGTTAGGG-3' (unknown origin) assessed as Gibbs free energy change measured under molecular crowding conditions by isothermal titration calorimetry; assay type: nucleic-acid assay; conditions: Homo sapiens
Quadruplex DNA [23] = assay: Binding affinity at TA-core G4 DNA 5'-TAGGGTTAGGGTTAGGGTTAGGG-3' (unknown origin) assessed as circular dichroism changes up to 4.5 uM by spectrophotometric method; assay type: nucleic-acid assay; conditions: Homo sapiens; dose microM <=4.5
Quadruplex DNA [24] = assay: Binding affinity to TA-core G4 DNA 5'-TAGGGTTAGGGTTAGGGTTAGGG-3' (unknown origin) assessed as change in enthalpy measured under molecular crowding conditions by isothermal titration calorimetry; assay type: nucleic-acid assay; conditions: Homo sapiens
Quadruplex DNA [25] = assay: Binding affinity to TA-core G4 DNA 5'-TAGGGTTAGGGTTAGGGTTAGGG-3' (unknown origin) assessed as association constant at equilibrium measured under dilution conditions by isothermal titration calorimetry; assay type: nucleic-acid assay; conditions: Homo sapiens
Quadruplex DNA [26] = assay: Binding affinity to c-myc G4 DNA 5'-TGAGGGTGGGGAGGGTGGGGAA-3' (unknown origin) assessed as change in entropy measured under dilution conditions by isothermal titration calorimetry; assay type: nucleic-acid assay; conditions: Homo sapiens

| Structure (SMILES) | Ka (Quadruplex DNA [1]) | inhibition [2] | ΔTm (Quadruplex DNA [3]) | deltaH (Quadruplex DNA [4]) | deltaH (Quadruplex DNA [5]) | -TdeltaS (Quadruplex DNA [6]) | deltaG (Quadruplex DNA [7]) | Ka (Quadruplex DNA [8]) | Ka (Quadruplex DNA [10]) | Activity (Quadruplex DNA [11]) | deltaG (Quadruplex DNA [12]) | Activity (Ca9-22 [13]) | deltaH (Quadruplex DNA [16]) | -TdeltaS (Quadruplex DNA [19]) | -TdeltaS (Quadruplex DNA [20]) | deltaG (Quadruplex DNA [21]) | deltaG (Quadruplex DNA [22]) | Activity (Quadruplex DNA [23]) | deltaH (Quadruplex DNA [24]) | Ka (Quadruplex DNA [25]) | also measured |
| --- | --- | --- | --- | --- | --- | --- | --- | --- | --- | --- | --- | --- | --- | --- | --- | --- | --- | --- | --- | --- | --- |
| CN1CCCNC(=O)CC2(CCCCC2)CC(=O)NCCCN(C)CCCN2C(=O)c3ccc4c5c(ccc(c35)C2=O)C(=O)N(CCC1)C4=O | 6.2e+06 M⁻¹ | Active | 10 °C | -14 kcal/mol | -13 kcal/mol | 4.4 kcal/mol | -8 kcal/mol | 600000 M⁻¹ | 700000 M⁻¹ | Active | -9.3 kcal/mol | Active | -20 kcal/mol | 12 kcal/mol | 35 kcal/mol | -8.6 kcal/mol | -7.9 kcal/mol | Active | -43 kcal/mol | 1.5e+06 M⁻¹ | inhibition at 24 h, 0.1 µM [9]: 40%; Activity (Bone marrow cell [14]): Non-Toxic; Activity (Bone marrow cell [15]): Non-Toxic; inhibition of growth at 0.1 µM (Ca9-22 [17]): > 70%; Activity [18]: Non-Toxic; -TdeltaS (Quadruplex DNA [26]): 4.7 kcal/mol |
| CN1CCCNC(=O)CCCC(=O)NCCCN(C)CCCN2C(=O)c3ccc4c5c(ccc(c35)C2=O)C(=O)N(CCC1)C4=O | 1.1e+06 M⁻¹ | Active | 10 °C | -11 kcal/mol | -8.5 kcal/mol | -0.4 kcal/mol | -8.5 kcal/mol | 1.9e+06 M⁻¹ | 1.6e+06 M⁻¹ | Active | -8.1 kcal/mol | Active | -20 kcal/mol | 12 kcal/mol | 14 kcal/mol | -8.9 kcal/mol | -8.6 kcal/mol | Active | -22 kcal/mol | 3.4e+06 M⁻¹ | -TdeltaS (Quadruplex DNA [26]): 2.9 kcal/mol |
| CN1CCCNC(=O)c2cccc(c2)C(=O)NCCCN(C)CCCN2C(=O)c3ccc4c5c(ccc(c35)C2=O)C(=O)N(CCC1)C4=O | 2.4e+06 M⁻¹ | Active | 10 °C | -10 kcal/mol | -9 kcal/mol | 0.36 kcal/mol | -8 kcal/mol | 700000 M⁻¹ | 800000 M⁻¹ | Active | -8.7 kcal/mol | Active | -53 kcal/mol | 45 kcal/mol | 27 kcal/mol | -8.6 kcal/mol | -8 kcal/mol | Active | -35 kcal/mol | 2.2e+06 M⁻¹ | -TdeltaS (Quadruplex DNA [26]): 1.3 kcal/mol |
| CN1CCCNC(=O)CC(C)(C)CC(=O)NCCCN(C)CCCN2C(=O)c3ccc4c5c(ccc(c35)C2=O)C(=O)N(CCC1)C4=O | 2.6e+06 M⁻¹ | Active | 10 °C | -11 kcal/mol | -11 kcal/mol | 2.5 kcal/mol | -7.6 kcal/mol | 700000 M⁻¹ | 400000 M⁻¹ | Active | -8.7 kcal/mol | Active | -48 kcal/mol | 41 kcal/mol | 21 kcal/mol | -8.5 kcal/mol | -8 kcal/mol | Active | -29 kcal/mol | 1.7e+06 M⁻¹ | -TdeltaS (Quadruplex DNA [26]): 2.3 kcal/mol |
